Test system: 786-O tumor (human renal clear cell adenocarcinoma cells)
Assay: Competitive inhibition assay in 786-O mouse model
Assay type: in vivo, NOD-SCID mice
Details: cold medicament 40 times the mass of hot medicament, 30 minutes before; scan 1 hour
Description: The experimental 786-O animal model was provided by Biaodu Baiao Biotechnology (Shanghai) Co., Ltd. The model was a 786-O tumor subcutaneous heterotopic transplant tumor model established based on NOD-SCID mice. This model was a mouse model constructed for human renal clear cell adenocarcinoma cells. Two animal models were randomly selected and injected with cold medicament NYM0005 through tail vein. The injection dose was 40 times the mass of the injected hot medicament (^68Ga-NYM0005). The order of administration was as follow: injecting the hot medicament ^68Ga-NYM0005 30 minutes after the administration of the cold medicament. After pre-anesthesia with an appropriate concentration of isoflurane/oxygen mixed gas prior to scanning, the animals were placed in a MicroPET/CT imaging cabin (SNPC-303 SuperNova, Pingsheng Medical Technology (Kunshan) Co., Ltd.), and anesthesia was maintained with isoflurane/air mixed gas. A MicroPET/CT scan was performed 1 hour after the administration of the hot medicament. The scanned images were obtained after reconstruction by means of the device software, and the scanned images were analyzed using PMOD software.

NS(=O)(=O)c1nnc(NC(=O)CCCc2cn(CCCCC(=O)N[C@@H](CC(=O)O)C(=O)NCCCCNC(=O)CN3CCN(CC(=O)O)CCN(CC(=O)O)CC3)nn2)s1 [NYM005]
blocking of 68Ga-NYM005 uptake of the tumor by cold medicament: significantly block

From patent publication US12564650B2, “Carbonic anhydrase IX-targeting radioactive diagnostic and therapeutic medicament and method for preparing same” (NORROY BIOSCIENCE CO., LTD., priority 2022, dated 2026)
